Source: patent US20200404909A1, “Fatty acid derivatives for use as herbicides” (Clariant International Ltd., priority 2018, published 2020)

Experiments:
[1] = Spray liquids in water: appearance and stability after 24 h; format: physicochemical; conditions: for Appearance: spray liquid in water, after 24 h
Procedure: The inventive compounds were used to make spray liquids at relevant use concentration. These spray liquids are produced by mixing the various test substances in water, and the appearance and stability of the spray liquid were assessed after 24 h.
The inventive compounds can be used as 100% substances without need for additional additives or formulation aids to obtain stable spray liquids. They are either water soluble and form clear homogeneous spray liquid or self-emulsifying in the spray liquid and form cloudy homogeneous emulsions that are stable over 24 h. […] Stable spray liquids can only be achieved with pelargonic acid when they are formulated with appropriate emulsifiers and other formulation aids like in the commercial benchmark Vorox.

[2] = Volatility from spray deposit on inert wettable synthetic substrates; format: physicochemical; conditions: pelargonic acid 30 g/L, Vorox 130 g/L
Procedure: (§1) The volatility of the test substances from the spray deposit was measured time dependent. All measurements have been carried out using a concentration of 50 g/L of the test substances in the application solution. The reference pelargonic acid was used at a concentration of 30 g/L and the commercial benchmark Vorox was applied at a concentration of 130 g/L. The […] drop volumes of 10 μl of the spray liquids which amounts to 500 μg of test substance were then applied on two different substrates. An inert wettable synthetic substrates and non-permeable leaf cuticles were used as substrates. […] After evaporation of drop water, the substrates were weighed to obtain the initial weight and placed under a sealed box with defined air suction output volume of 30 m^3/h. The volatility has been determined after the desired measurement time of 4 h, 24 h and 48 h by weighing of the substrates to obtain the remaining weight of the test substances. The fraction of remaining test substance in % is obtained by the ratio of remaining test substance compared to the initial weight of test substance. The volatilized amount was calculated by subtraction of the remaining test substance of the initial applied amount. The volatilized fraction of test substance in % is obtained by the ratio of volatilized test substance compared to the initial weight of test substance. A substrate without test substance is used as reference to account for changes in environmental conditions such as humidity. Concentrations used are based on ca. 3% pelargonic acid equivalent

[3] = tested on: Fruit trees (apple trees); test: Plant growth regulator activity: blossom thinning in orchards (greenhouse and field trial); format: in vivo; conditions: A1 diluted in water 1-10%, about 2 to about 15 liters per apple tree
Text: Fruit trees were sprayed with substance A1 (Pelargonic acid 6 EO ester methyl ether), several days before the expected full blossoming in the greenhouse, and also in a field trial to test the blossom thinning, which is used to increase the fruit production.
Plots (3 trees per plot in field trials; 1 tree per plot in greenhouse) were assigned to different treatments in a randomized experimental design. One plot was left untreated as a reference against which effects of the treatments could later be evaluated.
The test substance A1 was diluted in water in a range of 1-10% and the spray solution was sprayed in an amount of about 2 to about 15 liters per apple tree (height: about 2-2.5 m, width: about 1-1.5 m). The Application was made with a high-pressure power backpack sprayer manufactured by SOLO® Kleinmotoren GmbH.
The treated trees were evaluated regarding flower thinning effect, but also regarding undesired effects by chemical injury such as leaf browning, leaf malformation, etc.

[4] = Volatility from spray deposit on non-permeable leaf cuticles; format: physicochemical; conditions: pelargonic acid 30 g/L, Vorox 130 g/L
Procedure: as §1

[5] = tested on: monocotyledonous and dicotyledonous harmful plants (ABUTH, ALOMY, AMARE, DIGSA, ERICA, LOLPE, SOLNI, VIOAR); test: Greenhouse trials, post emergence herbicidal activity (percent control); format: in vivo; conditions: 5-20% w/v of applied substances, spray volume 500-1000 liters per hectare, broadcast foliar method
Text: Standard post emergence herbicide application procedures were used, as described below, to apply inventive compounds and formulations listed in the tables 1 and 2, as well as the reference materials.
Seed of monocotyledonous and dicotyledonous harmful plants such as Abutilon theophrasti (ABUTH), Alopecurus myosuroides (ALOMY), Amaranthus retroflexus (AMARE), Digitaria Sanguinalis (DIGSA), Erigeron canadensis (ERICA), Lolium perenne (LOLPE), Solanun nigrum (SOLNI), Viola arvensis (VIOAR) were sowed in 18 cm^2 pots. The plants were placed in a greenhouse under controlled environmental conditions, and sub-irrigation. About one week after emergence, seedlings were thinned as needed, including removal of any unhealthy or abnormal plants, to create a uniform series of test pots.
The plants were maintained for the duration of the test in the greenhouse, where they received a mean of 70 μmol m^−2 s^−1 of light per day/night. Temperatures averages about 24° C. during the day and about 20° C. during the night. Plants were sub-irrigated throughout the test to ensure adequate soil moisture levels.
Pots were assigned to different treatment in a randomized experimental design. A set of pots was left untreated as a reference against which effects of the treatments could later be evaluated. Applications of tested formulations were made in a spray cabin model SPK B CT02 designed by CheckTec using the following parameters: • nozzle Lechler LU-120-08, 1000 L/ha, 3 bars, 0.56 m/s • nozzle Lechler LU-120-06, 500 L/ha, 3 bars, 0.7 m/s.
The distance of the nozzle from the plants was between 50 to 53 cms.
After treatment, pots were returned to the greenhouse until ready for evaluation (6 hours after treatment (6HAT), 1 day after treatment (1DAT), and 2 days after treatment (2DAT).
For evaluation of herbicidal effectiveness, all plants in the test were examined by a single technician, who recorded percent control, a visual measurement of the effectiveness of each treatment by comparison with untreated plants. […] The reported % control values represent the average for all replicates of each treatment.

[6] = pH 4, 4 h, test substances 50 g/L
[7] = pH 4, 24 h, test substances 50 g/L
[8] = pH 4, 48 h, test substances 50 g/L

Molecule	Volatilized fraction 4 h [2, 6] [%]	Volatilized fraction 24 h [2, 7] [%]	Volatilized fraction 48 h [2, 8] [%]	Volatilized fraction 4 h [4, 6] [%]	Volatilized fraction 24 h [4, 7] [%]	Volatilized fraction 48 h [4, 8] [%]	herbicidal activity against a plurality of the harmful plants [5]	other results
CCCCCCCCC(=O)OCCOCCOCCOCCOCCOCCOC [A1, Pelargonic acid 6 EO ester methyl ether]	−0.2	0.6	1.2	1.5	4.8	5.2	moderately effective to highly effective	Appearance ([1]; amount 5.0 % by wt.): Clear solution; undesired effects by chemical injury (leaves, branches, tree) ([3]; evaluated after treatment): without significantly harming the tree; flower thinning effect ([3]; sprayed several days before full blossoming): excellent results as flower thinning agent; herbicidal activity against several, in particular three or more, of the mentioned harmful plants [5]: highly effective
CCCCCCCCC(=O)OCCOCCOCCOCCOCCOCCOCCOCCOC [A2, Pelargonic acid 8 EO ester methyl ether]	−0.3	0.2	0.4	1.7	2.1	2.8	moderately effective to highly effective	Appearance ([1]; amount 0.3 % by wt.): Clear solution; Appearance ([1]; amount 5.0 % by wt.): Clear solution
CCCCCCCCC(=O)OCCOCCOCCOCCOC(C)COCCOCCOC (stereo not shown) [A3, Pelargonic acid 1 PO 6 EO ester methyl ether]	–	–	–	–	–	–	moderately effective to highly effective	–
CCCCCCCCC(=O)OC(C)COCCOCCOC (stereo not shown) [A4, Pelargonic acid 1 PO 2 EO ester methyl ether]	–	–	–	–	–	–	moderately effective to highly effective	herbicidal activity against several, in particular three or more, of the mentioned harmful plants [5]: highly effective
CCCCCCCCCCOCCOCCOCCOCCOCCOC(=O)CCCCCCCC [A9, Pelargonic acid 5 EO ester decyl ether]	0.3	1.2	1.9	8.6	11.7	22.8	moderately effective to highly effective	–
CCCCCCCCC(=O)OCCOCCOCCOCCCCCC [A10, Pelargonic acid 3 EO ester hexyl ether]	0.9	4.4	7.2	6.2	14.7	18.9	moderately effective to highly effective	–
C=CCCCCCCCC(=O)OCCOCCOCCOCCOCCOCCOC [A11, Dec-9-enoic acid 6 EO ester methyl ether]	–	–	–	–	–	–	moderately effective to highly effective	–
CC(CC(=O)O)CC(C)(C)C (stereo not shown) [A13, 3,5,5-trimethylhexanoic acid]	–	–	–	–	–	–	moderately effective to highly effective	–
CCCCCCCCCCC(=O)OCCOCCOCCOCCOCCOCCOC [A15, Undecanoic acid 6 EO ester methyl ether]	–	–	–	–	–	–	moderately effective to highly effective	–
CCCCCCCCC(=O)OCCOCCOCCOCCOCCOCCOCC [A16, Pelargonic acid 6 EO ester ethyl ether]	–	–	–	–	–	–	moderately effective to highly effective	–
CCCCCCCCC(=O)OCCOCCOCCOCCOCCOCCOC(=O)CCCCCCCC [A17, Pelargonic acid 6 EO diester, reference compound]	0.6	1.0	1.3	0.6	1.5	0.6	–	–
CCCCCCCCC(=O)OCCOCCOCCOCCOCCOCCOCCOCCOC(=O)CCCCCCCC [A18, Pelargonic acid 8 EO diester, reference compound]	0.5	0.7	0.9	0.6	1.7	4.0	–	–
CCCCCCCCC(=O)O [Pelargonic acid, reference compound]	3.9	19.1	35.2	55.7	78.9	80.6	moderately effective to highly effective	stability of spray liquid ([1]; 100% substances in water without additional additives or formulation aids): phase separate immediately; Appearance ([1]; amount 0.3 % by wt.): 2 clear phases; Appearance ([1]; amount 5.0 % by wt.): 2 clear phases; Volatilized fraction 4 h ([2]; pH 7, 4 h): 7.3%; Volatilized fraction 24 h ([2]; pH 7, 24 h): 21.3%; Volatilized fraction 48 h ([2]; pH 7, 48 h): 27.9%; Volatilized fraction 4 h ([4]; pH 7, 4 h): 29.2%; Volatilized fraction 24 h ([4]; pH 7, 24 h): 33.8%; Volatilized fraction 48 h ([4]; pH 7, 48 h): 35.3%
C8/C10 fatty acid 4 EO ester methyl ether [A5]	–	–	–	–	–	–	moderately effective to highly effective	–
C8/C10 fatty acid 6 EO ester methyl ether [A6]	–	–	–	–	–	–	moderately effective to highly effective	Appearance ([1]; amount 5.0 % by wt.): Clear solution
C12/C14 fatty acid 3 EO ester methyl ether [A7]	–	–	–	–	–	–	moderately effective to highly effective	–
C12/C14 fatty acid 5 EO ester methyl ether [A8]	–	–	–	–	–	–	moderately effective to highly effective	–
Dodec-9-enoic acid 3 EO ester methyl ether [A12]	–	–	–	–	–	–	moderately effective to highly effective	–
Dodecanoic acid 6 EO ester methyl ether [A14]	–	–	–	–	–	–	moderately effective to highly effective	–
